Experimental data: US20240398828A1, “HETERO-ATOM CONTAINING COMPOUNDS AND USES THEREOF” (Kumquat Biosciences Inc., priority 2021, published 2024)

Columns and labels:
[1] = target: T1, PTPN1 (i.e., PTP1B) (Homo sapiens, UniProt P18031); experiment: Phosphatase activity assay (DiFMUP substrate), PTP1B; format: biochemical; conditions: compounds binned ≤1 uM or >1 uM
T1 sequence (P18031 1-435): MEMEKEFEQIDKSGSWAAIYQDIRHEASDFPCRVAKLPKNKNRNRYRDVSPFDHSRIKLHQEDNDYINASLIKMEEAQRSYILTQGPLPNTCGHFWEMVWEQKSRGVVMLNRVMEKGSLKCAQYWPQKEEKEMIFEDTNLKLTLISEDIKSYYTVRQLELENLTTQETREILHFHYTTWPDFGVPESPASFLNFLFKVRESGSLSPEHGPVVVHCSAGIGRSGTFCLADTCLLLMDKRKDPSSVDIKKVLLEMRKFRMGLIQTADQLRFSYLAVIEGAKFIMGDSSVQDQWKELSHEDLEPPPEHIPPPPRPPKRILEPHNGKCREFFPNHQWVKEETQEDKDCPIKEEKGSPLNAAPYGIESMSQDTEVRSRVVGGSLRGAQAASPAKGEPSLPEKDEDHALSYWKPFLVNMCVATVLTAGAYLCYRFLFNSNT
Procedure, shortened: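 First, serially diluted inhibitor is mixed about 2 minutes with enzyme in pH 7.5 HEPES/NaCl/EDTA/DTT/Tween-20 buffer. Next, DiFMUP is added at the enzyme's Km, approximately 45 μM for PTPN2. Finally, DiFMU appearance is read continuously at room temperature and rates are fitted for IC50.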

[2] = target: T2, PTPN2 (i.e., TC-PTP) (Homo sapiens, UniProt P17706); experiment: Phosphatase activity assay (DiFMUP substrate), PTPN2; format: biochemical; conditions: compounds binned ≤1 uM or >1 uM
T2 sequence (P17706 1-415): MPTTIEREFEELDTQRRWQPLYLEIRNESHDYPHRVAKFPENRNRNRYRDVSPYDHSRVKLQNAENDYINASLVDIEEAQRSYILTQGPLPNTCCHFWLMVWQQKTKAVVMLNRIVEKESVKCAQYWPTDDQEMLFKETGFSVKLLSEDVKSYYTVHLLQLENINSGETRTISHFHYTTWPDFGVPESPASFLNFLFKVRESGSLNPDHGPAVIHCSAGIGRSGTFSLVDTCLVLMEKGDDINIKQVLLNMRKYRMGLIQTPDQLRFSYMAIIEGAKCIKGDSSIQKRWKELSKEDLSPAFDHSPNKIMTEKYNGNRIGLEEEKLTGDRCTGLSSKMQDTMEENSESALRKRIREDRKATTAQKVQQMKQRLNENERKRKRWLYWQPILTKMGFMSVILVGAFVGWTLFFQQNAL
Procedure, shortened: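 Using a Km-level DiFMUP substrate and 0.025 ng/ul PTPN2, phosphatase activity is tracked by DiFMU emission at 450 nm over about 15–30 minutes. Initial rates at ten inhibitor concentrations give IC50 by four-parameter fitting.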

Compound	IC50 [1]	IC50 [2]
O=C1CN(c2c(O)ccc(-c3cc(C4CC4)n(CC(F)F)n3)c2F)S(=O)(=O)N1 [Compound 435, 5-(3-(5-cyclopropyl-1-(2,2-difluoroethyl)-1H-pyrazol-3-yl)-2-fluoro-6-hydroxyphenyl)-1,2,5-thiadiazolidin-3-one 1,1-dioxide]	≤ 1000 nM	≤ 1000 nM
CC(C)CNCc1cc(-c2ccc(O)c(N3CC(=O)NS3(=O)=O)c2F)[nH]n1 [Compound 436, 5-(2-fluoro-6-hydroxy-3-(3-((isobutylamino)methyl)-1H-pyrazol-5-yl)phenyl)-1,2,5-thiadiazolidin-3-one 1,1-dioxide]	≤ 1000 nM	≤ 1000 nM
O=C1CN(c2c(O)ccc(-c3cn(-c4ccccc4F)cn3)c2F)S(=O)(=O)N1 [Compound 437, 5-(2-fluoro-3-(1-(2-fluorophenyl)-1H-imidazol-4-yl)-6-hydroxyphenyl)-1,2,5-thiadiazolidin-3-one 1,1-dioxide]	≤ 1000 nM	≤ 1000 nM
O=C1CN(c2c(O)ccc(-c3ccc(NS(=O)(=O)C4CC4)cc3F)c2F)S(=O)(=O)N1 [Compound 438, N-(3′-(1,1-dioxido-4-oxo-1,2,5-thiadiazolidin-2-yl)-2,2′-difluoro-4′-hydroxy-[1,1′-biphenyl]-4-yl)cyclopropanesulfonamide]	≤ 1000 nM	≤ 1000 nM
N#Cc1cc(-c2ccc(O)c(N3CC(=O)NS3(=O)=O)c2F)[nH]n1 [Compound 439, 5-(3-(1,1-dioxido-4-oxo-1,2,5-thiadiazolidin-2-yl)-2-fluoro-4-hydroxyphenyl)-1H-pyrazole-3-carbonitrile]	≤ 1000 nM	≤ 1000 nM
O=C1CN(c2c(O)ccc(-c3cn(C4CC4)nc3F)c2F)S(=O)(=O)N1 [Compound 440, 5-(3-(1-cyclopropyl-3-fluoro-1H-pyrazol-4-yl)-2-fluoro-6-hydroxyphenyl)-1,2,5-thiadiazolidin-3-one 1,1-dioxide]	≤ 1000 nM	≤ 1000 nM
N#CC1(c2cc(-c3ccc(O)c(N4CC(=O)NS4(=O)=O)c3F)[nH]n2)CC1 [Compound 441, 1-(5-(3-(1,1-dioxido-4-oxo-1,2,5-thiadiazolidin-2-yl)-2-fluoro-4-hydroxyphenyl)-1H-pyrazol-3-yl)cyclopropane-1-carbonitrile]	≤ 1000 nM	≤ 1000 nM
CN1CC2(CCC(n3cc(-c4ccc(O)c(N5CC(=O)NS5(=O)=O)c4F)cn3)C2)C1 (stereo not shown) [Compound 442, 5-(2-fluoro-6-hydroxy-3-(1-(2-methyl-2-azaspiro[3.4]octan-6-yl)-1H-pyrazol-4-yl)phenyl)-1,2,5-thiadiazolidin-3-one 1,1-dioxide]	≤ 1000 nM	≤ 1000 nM
COCCS(=O)(=O)Nc1ccc(-c2ccc(O)c(N3CC(=O)NS3(=O)=O)c2F)cc1 [Compound 443, N-(3′-(1,1-dioxido-4-oxo-1,2,5-thiadiazolidin-2-yl)-2′-fluoro-4′-hydroxy-[1,1′-biphenyl]-4-yl)-2-methoxyethane-1-sulfonamide]	≤ 1000 nM	≤ 1000 nM
CC(C)CCn1cc(-c2ccc(O)c(N3CC(=O)NS3(=O)=O)c2F)c(=O)[nH]1 [Compound 444, 5-(2-fluoro-6-hydroxy-3-(1-isopentyl-3-oxo-2,3-dihydro-1H-pyrazol-4-yl)phenyl)-1,2,5-thiadiazolidin-3-one 1,1-dioxide]	≤ 1000 nM	≤ 1000 nM
COc1cccc(-n2cnc(-c3ccc(O)c(N4CC(=O)NS4(=O)=O)c3F)c2)c1 [Compound 445, 5-(2-fluoro-6-hydroxy-3-(1-(3-methoxyphenyl)-1H-imidazol-4-yl)phenyl)-1,2,5-thiadiazolidin-3-one 1,1-dioxide]	≤ 1000 nM	≤ 1000 nM
O=C1CN(c2c(O)ccc(-c3cnn(C4CCC(F)(F)CC4)c3)c2F)S(=O)(=O)N1 [Compound 446, 5-(3-(1-(4,4-difluorocyclohexyl)-1H-pyrazol-4-yl)-2-fluoro-6-hydroxyphenyl)-1,2,5-thiadiazolidin-3-one 1,1-dioxide]	≤ 1000 nM	≤ 1000 nM
CC(C)c1cc(-c2ccc(O)c(N3CC(=O)NS3(=O)=O)c2F)nn1C [Compound 447, 5-(2-fluoro-6-hydroxy-3-(5-isopropyl-1-methyl-1H-pyrazol-3-yl)phenyl)-1,2,5-thiadiazolidin-3-one 1,1-dioxide]	≤ 1000 nM	≤ 1000 nM
O=C1CN(c2c(O)ccc(-c3cc(N4CCC(O)C4)n[nH]3)c2F)S(=O)(=O)N1 (stereo not shown) [Compound 448, 5-(2-fluoro-6-hydroxy-3-(3-(3-hydroxypyrrolidin-1-yl)-1H-pyrazol-5-yl)phenyl)-1,2,5-thiadiazolidin-3-one 1,1-dioxide]	≤ 1000 nM	≤ 1000 nM
O=C1CN(c2c(O)ccc(-c3cccc(NS(=O)(=O)C4CC4)c3)c2F)S(=O)(=O)N1 [Compound 449, N-(3′-(1,1-dioxido-4-oxo-1,2,5-thiadiazolidin-2-yl)-2′-fluoro-4′-hydroxy-[1,1′-biphenyl]-3-yl)cyclopropanesulfonamide]	≤ 1000 nM	≤ 1000 nM
O=C1CN(c2c(O)ccc(C3CCC(NS(=O)(=O)C4CC4)CC3)c2F)S(=O)(=O)N1 (stereo not shown) [Compound 450, N-(4-(3-(1,1-dioxido-4-oxo-1,2,5-thiadiazolidin-2-yl)-2-fluoro-4-hydroxyphenyl)cyclohexyl)cyclopropanesulfonamide]	≤ 1000 nM	≤ 1000 nM
O=C1CN(c2c(O)ccc(-c3cc(N4CC(F)(F)C4)n[nH]3)c2F)S(=O)(=O)N1 [Compound 451, 5-(3-(3-(3,3-difluoroazetidin-1-yl)-1H-pyrazol-5-yl)-2-fluoro-6-hydroxyphenyl)-1,2,5-thiadiazolidin-3-one 1,1-dioxide]	≤ 1000 nM	≤ 1000 nM
O=C1CN(c2c(O)ccc(-c3cc(CCC4CC4)n[nH]3)c2F)S(=O)(=O)N1 [Compound 452, 5-(3-(3-(2-cyclopropylethyl)-1H-pyrazol-5-yl)-2-fluoro-6-hydroxyphenyl)-1,2,5-thiadiazolidin-3-one 1,1-dioxide]	≤ 1000 nM	≤ 1000 nM
O=C1CN(c2c(O)ccc(-c3cn(CC4CCCCC4)cn3)c2F)S(=O)(=O)N1 [Compound 453, 5-(3-(1-(cyclohexylmethyl)-1H-imidazol-4-yl)-2-fluoro-6-hydroxyphenyl)-1,2,5-thiadiazolidin-3-one 1,1-dioxide]	≤ 1000 nM	≤ 1000 nM
Cc1cc(-c2ccc(O)c(N3CC(=O)NS3(=O)=O)c2F)nn1C [Compound 454, 5-(3-(1,5-dimethyl-1H-pyrazol-3-yl)-2-fluoro-6-hydroxyphenyl)-1,2,5-thiadiazolidin-3-one 1,1-dioxide]	≤ 1000 nM	≤ 1000 nM
O=C1CN(c2c(O)ccc(-c3cc(CCC4CCCCC4)n[nH]3)c2F)S(=O)(=O)N1 [Compound 455, 5-(3-(3-(2-cyclohexylethyl)-1H-pyrazol-5-yl)-2-fluoro-6-hydroxyphenyl)-1,2,5-thiadiazolidin-3-one 1,1-dioxide]	≤ 1000 nM	≤ 1000 nM
O=C1CN(c2c(O)ccc(-c3cnn(C4CCCOCC4)c3)c2F)S(=O)(=O)N1 (stereo not shown) [Compound 456, 5-(2-fluoro-6-hydroxy-3-(1-(oxepan-4-yl)-1H-pyrazol-4-yl)phenyl)-1,2,5-thiadiazolidin-3-one 1,1-dioxide]	≤ 1000 nM	≤ 1000 nM
O=C1CN(c2c(O)ccc(-c3cn(Cc4cccnc4)cn3)c2F)S(=O)(=O)N1 [Compound 457, 5-(2-fluoro-6-hydroxy-3-(1-(pyridin-3-ylmethyl)-1H-imidazol-4-yl)phenyl)-1,2,5-thiadiazolidin-3-one 1,1-dioxide]	≤ 1000 nM	≤ 1000 nM
O=C1CN(c2c(O)ccc(-n3cc(C4CC4)c(O)n3)c2F)S(=O)(=O)N1 [Compound 458, 5-(3-(4-cyclopropyl-3-hydroxy-1H-pyrazol-1-yl)-2-fluoro-6-hydroxyphenyl)-1,2,5-thiadiazolidin-3-one 1,1-dioxide]	≤ 1000 nM	≤ 1000 nM
O=C1CN(c2c(O)ccc(-c3cn(C4CCCCC4)cn3)c2F)S(=O)(=O)N1 [Compound 459, 5-(3-(1-cyclohexyl-1H-imidazol-4-yl)-2-fluoro-6-hydroxyphenyl)-1,2,5-thiadiazolidin-3-one 1,1-dioxide]	≤ 1000 nM	≤ 1000 nM
O=C1CN(c2c(O)ccc(-c3cc(C(=O)NC4CC4)n[nH]3)c2F)S(=O)(=O)N1 [Compound 460, N-cyclopropyl-5-(3-(1,1-dioxido-4-oxo-1,2,5-thiadiazolidin-2-yl)-2-fluoro-4-hydroxyphenyl)-1H-pyrazole-3-carboxamide]	≤ 1000 nM	> 1000 nM
